From article PMC4268243 (Nuclear medicine and biology, 2014)

What was measured:
U87 tumor xenograft = test: Biodistribution in U87 tumor-bearing SCID mice; assay type: in vivo; settings: listed as (S)-[^18F]FAMP 1
U87 glioblastoma cells = test: Amino acid uptake and inhibition in U87 cells; assay type: cell-based, human; settings: U87, 30 minutes incubation
[1] = tested on: DU145 androgen-independent prostate carcinoma cells; test: Amino acid uptake and inhibition in DU145 cells; assay type: cell-based, human; settings: DU145, 30 minutes incubation
SKOV3 tumor xenograft = test: Biodistribution in SKOV3 tumor-bearing SCID mice; assay type: in vivo; settings: listed as (S)-[^18F]FAMP 1
[2] = tested on: A549 lung adenocarcinoma cells; test: Amino acid uptake and inhibition in A549 cells; assay type: cell-based, human; settings: A549, 30 minutes incubation
[3] = tested on: MDA MB468 estrogen-independent breast carcinoma cells; test: Amino acid uptake and inhibition in MDA MB468 cells; assay type: cell-based, human; settings: for Cell uptake: MDA MB468, 30 minutes incubation
[4] = tested on: human A549, DU145, U87, MDA MB468 and SKOV3 tumor cells; test: Amino acid uptake and inhibition, summary over the five tumor cell lines; assay type: cell-based

In the case of `CC(N)(C[18F])C(=O)O` [(S)-[^18F]1] [2-amino-3-[^18F]fluoro-2-methylpropanoic acid], the uptake in blood (U87 tumor xenograft; 15 min post injection) is reported as 3.5±0.4 %ID/g, the uptake in bone (U87 tumor xenograft; 15 min post injection) is reported as 2.4±0.7 %ID/g and the uptake in brain (U87 tumor xenograft; 15 min post injection) is reported as 0.5±0.1 %ID/g. For the same compound, the uptake in heart (U87 tumor xenograft; 15 min post injection) was 3.1±0.4 %ID/g, the uptake in kidney (U87 tumor xenograft; 15 min post injection) was 37±4.9 %ID/g and the uptake in liver (U87 tumor xenograft; 15 min post injection) was 6.6±2.0 %ID/g. For the same compound, the uptake in lung (U87 tumor xenograft; 15 min post injection) was 4.6±0.6 %ID/g, the uptake in muscle (U87 tumor xenograft; 15 min post injection) was 3.3±0.7 %ID/g and the uptake in pancreas (U87 tumor xenograft; 15 min post injection) was 48±11 %ID/g. It also gave an uptake in spleen (U87 tumor xenograft; 15 min post injection) of 11±2.7 %ID/g, an uptake in tumor (U87 tumor xenograft; 15 min post injection) of 6.4±1.3 %ID/g and an uptake in blood (U87 tumor xenograft; 30 min post injection) of 3.7±0.7 %ID/g. The uptake in bone (U87 tumor xenograft; 30 min post injection) was 2.1±0.5 %ID/g, the uptake in brain (U87 tumor xenograft; 30 min post injection) was 0.6±0.1 %ID/g and the uptake in heart (U87 tumor xenograft; 30 min post injection) was 3.1±0.4 %ID/g. For the same compound, the uptake in kidney (U87 tumor xenograft; 30 min post injection) was 28±5.2 %ID/g, the uptake in liver (U87 tumor xenograft; 30 min post injection) was 6.0±1.0 %ID/g and the uptake in lung (U87 tumor xenograft; 30 min post injection) was 3.6±0.5 %ID/g. The uptake in muscle (U87 tumor xenograft; 30 min post injection) was 3.3±0.3 %ID/g, the uptake in pancreas (U87 tumor xenograft; 30 min post injection) was 50±8.7 %ID/g and the uptake in spleen (U87 tumor xenograft; 30 min post injection) was 10±1.0 %ID/g. For the same compound, the uptake in tumor (U87 tumor xenograft; 30 min post injection) was 6.8±0.8 %ID/g, the uptake in blood (U87 tumor xenograft; 60 min post injection) was 2.1±0.4 %ID/g and the uptake in bone (U87 tumor xenograft; 60 min post injection) was 2.0±0.1 %ID/g. It also gave an uptake in brain (U87 tumor xenograft; 60 min post injection) of 0.6±0.1 %ID/g, an uptake in heart (U87 tumor xenograft; 60 min post injection) of 2.8±0.7 %ID/g and an uptake in kidney (U87 tumor xenograft; 60 min post injection) of 15±3.3 %ID/g. For the same compound, the uptake in liver (U87 tumor xenograft; 60 min post injection) was 4.4±0.6 %ID/g, the uptake in lung (U87 tumor xenograft; 60 min post injection) was 2.6±0.8 %ID/g and the uptake in muscle (U87 tumor xenograft; 60 min post injection) was 2.3±0.3 %ID/g. For the same compound, the uptake in pancreas (U87 tumor xenograft; 60 min post injection) was 32±11 %ID/g, the uptake in spleen (U87 tumor xenograft; 60 min post injection) was 6.1±1.1 %ID/g and the uptake in tumor (U87 tumor xenograft; 60 min post injection) was 4.4±0.8 %ID/g. It also gave an uptake in blood (U87 tumor xenograft; 120 min post injection) of 1.2±0.5 %ID/g, an uptake in bone (U87 tumor xenograft; 120 min post injection) of 1.0±0.3 %ID/g and an uptake in brain (U87 tumor xenograft; 120 min post injection) of 0.7±0.2 %ID/g. The uptake in heart (U87 tumor xenograft; 120 min post injection) was 2.1±0.3 %ID/g, the uptake in kidney (U87 tumor xenograft; 120 min post injection) was 7.3±1.4 %ID/g and the uptake in liver (U87 tumor xenograft; 120 min post injection) was 4.1±1.3 %ID/g. It also gave an uptake in lung (U87 tumor xenograft; 120 min post injection) of 1.5±0.4 %ID/g, an uptake in muscle (U87 tumor xenograft; 120 min post injection) of 1.3±0.3 %ID/g and an uptake in pancreas (U87 tumor xenograft; 120 min post injection) of 18±6.4 %ID/g. The uptake in spleen (U87 tumor xenograft; 120 min post injection) was 3.4±1.1 %ID/g, the uptake in tumor (U87 tumor xenograft; 120 min post injection) was 2.8±0.4 %ID/g and the Cell uptake (U87 glioblastoma cells; 10 mM BCH) was 0.8±0.1 % ID/5×10^5 cells. The Cell uptake (U87 glioblastoma cells; 10 mM MeAIB) was 1.0±0.04 % ID/5×10^5 cells, the Cell uptake (U87 glioblastoma cells; Control (no inhibitor)) was 1.5±0.1 % ID/5×10^5 cells and the Cell uptake ([1]; 10 mM BCH) was 1.6±0.1 % ID/5×10^5 cells. For the same compound, the Cell uptake ([1]; 10 mM MeAIB) was 3.2±0.4 % ID/5×10^5 cells, the Cell uptake ([1]; Control (no inhibitor)) was 3.6±0.3 % ID/5×10^5 cells and the uptake in blood (SKOV3 tumor xenograft; 15 min post injection) was 3.5±0.8 %ID/g. For the same compound, the uptake in bone (SKOV3 tumor xenograft; 15 min post injection) was 2.2±0.7 %ID/g, the uptake in brain (SKOV3 tumor xenograft; 15 min post injection) was 0.4±0.1 %ID/g and the uptake in heart (SKOV3 tumor xenograft; 15 min post injection) was 2.8±0.8 %ID/g. For the same compound, the uptake in kidney (SKOV3 tumor xenograft; 15 min post injection) was 31±6.8 %ID/g, the uptake in liver (SKOV3 tumor xenograft; 15 min post injection) was 3.6±1.0 %ID/g and the uptake in lung (SKOV3 tumor xenograft; 15 min post injection) was 4.8±1.3 %ID/g. The uptake in muscle (SKOV3 tumor xenograft; 15 min post injection) was 2.8±0.9 %ID/g, the uptake in pancreas (SKOV3 tumor xenograft; 15 min post injection) was 44±15 %ID/g and the uptake in spleen (SKOV3 tumor xenograft; 15 min post injection) was 9.8±4.3 %ID/g. For the same compound, the uptake in tumor (SKOV3 tumor xenograft; 15 min post injection) was 6.2±4.1 %ID/g, the uptake in blood (SKOV3 tumor xenograft; 30 min post injection) was 3.1±0.7 %ID/g and the uptake in bone (SKOV3 tumor xenograft; 30 min post injection) was 2.2±0.4 %ID/g. It also gave an uptake in brain (SKOV3 tumor xenograft; 30 min post injection) of 0.5±0.1 %ID/g, an uptake in heart (SKOV3 tumor xenograft; 30 min post injection) of 2.8±0.5 %ID/g and an uptake in kidney (SKOV3 tumor xenograft; 30 min post injection) of 22±4.9 %ID/g. For the same compound, the uptake in liver (SKOV3 tumor xenograft; 30 min post injection) was 3.9±0.6 %ID/g, the uptake in lung (SKOV3 tumor xenograft; 30 min post injection) was 4.4±0.7 %ID/g and the uptake in muscle (SKOV3 tumor xenograft; 30 min post injection) was 2.8±0.5 %ID/g. The uptake in pancreas (SKOV3 tumor xenograft; 30 min post injection) was 40±13 %ID/g, the uptake in spleen (SKOV3 tumor xenograft; 30 min post injection) was 8.4±2.1 %ID/g and the uptake in tumor (SKOV3 tumor xenograft; 30 min post injection) was 7.3±3.0 %ID/g. It also gave an uptake in blood (SKOV3 tumor xenograft; 60 min post injection) of 2.1±0.6 %ID/g, an uptake in bone (SKOV3 tumor xenograft; 60 min post injection) of 1.7±0.6 %ID/g and an uptake in brain (SKOV3 tumor xenograft; 60 min post injection) of 0.6±0.2 %ID/g. It also gave an uptake in heart (SKOV3 tumor xenograft; 60 min post injection) of 2.6±0.7 %ID/g, an uptake in kidney (SKOV3 tumor xenograft; 60 min post injection) of 15±4.8 %ID/g and an uptake in liver (SKOV3 tumor xenograft; 60 min post injection) of 3.6±1.1 %ID/g. For the same compound, the uptake in lung (SKOV3 tumor xenograft; 60 min post injection) was 3.2±1.1 %ID/g, the uptake in muscle (SKOV3 tumor xenograft; 60 min post injection) was 2.2±0.7 %ID/g and the uptake in pancreas (SKOV3 tumor xenograft; 60 min post injection) was 36±8.6 %ID/g. The uptake in spleen (SKOV3 tumor xenograft; 60 min post injection) was 5.5±1.2 %ID/g, the uptake in tumor (SKOV3 tumor xenograft; 60 min post injection) was 6.2±3.1 %ID/g and the uptake in bone (SKOV3 tumor xenograft; 120 min post injection) was 1.6±1.1 %ID/g. For the same compound, the uptake in brain (SKOV3 tumor xenograft; 120 min post injection) was 0.7±0.3 %ID/g, the uptake in heart (SKOV3 tumor xenograft; 120 min post injection) was 2.6±1.4 %ID/g and the uptake in kidney (SKOV3 tumor xenograft; 120 min post injection) was 11±5.0 %ID/g. The uptake in liver (SKOV3 tumor xenograft; 120 min post injection) was 3.2±0.7 %ID/g, the uptake in lung (SKOV3 tumor xenograft; 120 min post injection) was 2.3±0.8 %ID/g and the uptake in muscle (SKOV3 tumor xenograft; 120 min post injection) was 1.7±0.9 %ID/g. It also gave an uptake in pancreas (SKOV3 tumor xenograft; 120 min post injection) of 22±3.6 %ID/g, an uptake in spleen (SKOV3 tumor xenograft; 120 min post injection) of 4.6±2.3 %ID/g and an uptake in tumor (SKOV3 tumor xenograft; 120 min post injection) of 5.1±1.6 %ID/g. For the same compound, the Cell uptake ([2]; 10 mM BCH) was 1.5±0.1 % ID/5×10^5 cells, the Cell uptake ([2]; 10 mM MeAIB) was 3.9±0.6 % ID/5×10^5 cells and the Cell uptake ([2]; Control (no inhibitor)) was 4.8±0.7 % ID/5×10^5 cells. The Cell uptake ([3]; 10 mM BCH) was 2.2±0.1 % ID/5×10^5 cells, the Cell uptake ([3]; 10 mM MeAIB) was 3.5±0.2 % ID/5×10^5 cells and the Cell uptake ([3]; Control (no inhibitor)) was 3.4±0.3 % ID/5×10^5 cells. For the same compound, the “inhibition of uptake by MeAIB” value ([3]; MDA MB468 cells, 10 mM MeAIB) was “no significant MeAIB inhibition”, the “inhibition of uptake by BCH” value ([4]; 10 mM BCH, relative to control, most cell lines) was 36-68% and the “inhibition of uptake by MeAIB” value ([4]; 10 mM MeAIB, relative to control, most cell lines) was 10-32%. For the same compound, the “uptake in tumor cells” value ([4]; 30 minutes incubation, without inhibitors, range over the cell lines) was 2-5 %ID/5×10^5 cells and the “amino acid transport system mediating uptake / selectivity” value ([4]; AAT cell inhibition assays with MeAIB and BCH) was “mixed AATs, likely but not limited to system A and system L”.
